{
  "source": "paper PMC5218480",
  "about": "(PLoS ONE, 2017)",
  "tested_on": "MV-4-11 cells",
  "assay": "Gene expression microarray analysis (Affymetrix PrimeView) and GSEA",
  "format": "cell-based, human",
  "parameters": "RFU PODN (11730768_x_at) / Fold change /veh PODN (11730768_x_at) / RFU LINC00158 (11744669_a_at) / Fold change /veh LINC00158 (11744669_a_at) / RFU DUSP10 (11751237_a_at) / Fold change /veh DUSP10 (11751237_a_at) / RFU ID3 (11757404_x_at) / Fold change /veh ID3 (11757404_x_at) / RFU PLEKHG5 (11737974_s_at) / Fold change /veh PLEKHG5 (11737974_s_at) / RFU LRRC4B (11730491_at) / Fold change /veh LRRC4B (11730491_at) / RFU GIMAP4 (11747438_a_at) / Fold change /veh GIMAP4 (11747438_a_at) / RFU KRT8 (11758183_x_at) / Fold change /veh KRT8 (11758183_x_at) / RFU CNN1 (11734310_a_at) / Fold change /veh CNN1 (11734310_a_at) / RFU VPS37D (11726825_at) / Fold change /veh VPS37D (11726825_at) / RFU C10orf10 (11716522_x_at) / Fold change /veh C10orf10 (11716522_x_at) / RFU KIR2DL2 /// KIR2DL4 /// KIR2DL5A /// KIR2DL5B /// KIR2DS1 /// KIR2DS2 /// KIR2DS3 /// KIR2DS4 /// KIR3DL3 /// KIR3DL3 /// KIR3DS1 (11738374_at) / Fold change /veh KIR2DL2 /// KIR2DL4 /// KIR2DL5A /// KIR2DL5B /// KIR2DS1 /// KIR2DS2 /// KIR2DS3 /// KIR2DS4 /// KIR3DL3 /// KIR3DL3 /// KIR3DS1 (11738374_at) / RFU C1QL1 (11718748_at) / Fold change /veh C1QL1 (11718748_at) / RFU TMPRSS4 (11747572_a_at) / Fold change /veh TMPRSS4 (11747572_a_at) / RFU HAMP (11756126_x_at) / Fold change /veh HAMP (11756126_x_at) / RFU RNFT2 (11725882_a_at) / Fold change /veh RNFT2 (11725882_a_at) / RFU NR4A2 (11747474_a_at) / Fold change /veh NR4A2 (11747474_a_at) / RFU ABCC12 (11746883_a_at) / Fold change /veh ABCC12 (11746883_a_at) / RFU TMEM136 (11760407_x_at) / Fold change /veh TMEM136 (11760407_x_at) / RFU CLDN22 /// WWC2 (11732394_at) / Fold change /veh CLDN22 /// WWC2 (11732394_at) / RFU HLA-DPB1 (11760878_x_at) / Fold change /veh HLA-DPB1 (11760878_x_at) / RFU SPINT1 (11716480_a_at) / Fold change /veh SPINT1 (11716480_a_at) / RFU GAP43 (11754022_s_at) / Fold change /veh GAP43 (11754022_s_at) / RFU A4GNT (11735810_at) / Fold change /veh A4GNT (11735810_at) / RFU PRB3 (11715151_x_at) / Fold change /veh PRB3 (11715151_x_at) / RFU TUBB4B (11761932_at) / Fold change /veh TUBB4B (11761932_at) / RFU CAPN14 (11732068_a_at) / Fold change /veh CAPN14 (11732068_a_at) / RFU TMCC2 (11721928_a_at) / Fold change /veh TMCC2 (11721928_a_at) / RFU IRGQ (11745062_a_at) / Fold change /veh IRGQ (11745062_a_at) / RFU FAM174B (11720279_a_at) / Fold change /veh FAM174B (11720279_a_at) / RFU TMPRSS4 (11748680_a_at) / Fold change /veh TMPRSS4 (11748680_a_at) / RFU FAM212B (11763350_a_at) / Fold change /veh FAM212B (11763350_a_at) / RFU PLEKHG5 (11743358_a_at) / Fold change /veh PLEKHG5 (11743358_a_at) / RFU ZSCAN30 (11745921_a_at) / Fold change /veh ZSCAN30 (11745921_a_at) / RFU CMKLR1 (11741424_a_at) / Fold change /veh CMKLR1 (11741424_a_at) / RFU LOC101060620 /// MAPK8IP1 (11723275_at) / Fold change /veh LOC101060620 /// MAPK8IP1 (11723275_at) / RFU SPTSSB (11747773_x_at) / Fold change /veh SPTSSB (11747773_x_at) / RFU PRSS12 (11739890_at) / Fold change /veh PRSS12 (11739890_at) / RFU BIN1 (11741810_x_at) / Fold change /veh BIN1 (11741810_x_at) / RFU WNT11 (11732464_a_at) / Fold change /veh WNT11 (11732464_a_at) / RFU C10orf10 (11716521_a_at) / Fold change /veh C10orf10 (11716521_a_at) / RFU C5orf56 (11738089_at) / Fold change /veh C5orf56 (11738089_at) / RFU CYB561 (11721691_x_at) / Fold change /veh CYB561 (11721691_x_at) / RFU ANKRD19P (11752326_a_at) / Fold change /veh ANKRD19P (11752326_a_at) / RFU OR2T12 /// OR2T33 /// OR2T8 (11738714_s_at) / Fold change /veh OR2T12 /// OR2T33 /// OR2T8 (11738714_s_at) / RFU VCAN (11748164_a_at) / Fold change /veh VCAN (11748164_a_at) / RFU JSRP1 (11732532_at) / Fold change /veh JSRP1 (11732532_at) / RFU KRTAP10-11 (11738290_x_at) / Fold change /veh KRTAP10-11 (11738290_x_at) / RFU MYO3A (11730013_a_at) / Fold change /veh MYO3A (11730013_a_at) / RFU EBF3 (11725865_a_at) / Fold change /veh EBF3 (11725865_a_at) / RFU CAMK2N1 (11719241_x_at) / Fold change /veh CAMK2N1 (11719241_x_at) / RFU C5orf56 (11738088_a_at) / Fold change /veh C5orf56 (11738088_a_at) / RFU OLFML3 (11715873_a_at) / Fold change /veh OLFML3 (11715873_a_at) / RFU LOC100653217 /// NTM (11731650_a_at) / Fold change /veh LOC100653217 /// NTM (11731650_a_at) / RFU MAPK11 (11762145_a_at) / Fold change /veh MAPK11 (11762145_a_at) / RFU FIZ1 (11724087_x_at) / Fold change /veh FIZ1 (11724087_x_at) / RFU OASL (11726364_x_at) / Fold change /veh OASL (11726364_x_at) / RFU SOX15 (11748057_x_at) / Fold change /veh SOX15 (11748057_x_at) / RFU CD79A (11719716_a_at) / Fold change /veh CD79A (11719716_a_at) / RFU HIST1H1D (11736915_at) / Fold change /veh HIST1H1D (11736915_at) / RFU CASKIN2 (11723855_a_at) / Fold change /veh CASKIN2 (11723855_a_at) / RFU LOC730098 (11760151_x_at) / Fold change /veh LOC730098 (11760151_x_at) / RFU OR4N2 (11742367_at) / Fold change /veh OR4N2 (11742367_at) / RFU PRRT2 (11749266_a_at) / Fold change /veh PRRT2 (11749266_a_at) / RFU SNX32 (11753110_a_at) / Fold change /veh SNX32 (11753110_a_at) / RFU CDHR5 (11726645_a_at) / Fold change /veh CDHR5 (11726645_a_at) / RFU RCAN1 (11760418_a_at) / Fold change /veh RCAN1 (11760418_a_at) / RFU FAM167A (11723789_a_at) / Fold change /veh FAM167A (11723789_a_at) / RFU FAM26E (11764081_at) / Fold change /veh FAM26E (11764081_at) / RFU ISYNA1 (11749810_s_at) / Fold change /veh ISYNA1 (11749810_s_at) / RFU ACY1 (11761880_at) / Fold change /veh ACY1 (11761880_at) / RFU 11764098_at / Fold change /veh 11764098_at / RFU SAMD14 (11745864_x_at) / Fold change /veh SAMD14 (11745864_x_at) / RFU NPB (11741838_a_at) / Fold change /veh NPB (11741838_a_at) / RFU TMPRSS6 (11731388_a_at) / Fold change /veh TMPRSS6 (11731388_a_at) / RFU KRTAP10-2 (11738614_at) / Fold change /veh KRTAP10-2 (11738614_at) / RFU ARHGAP8 /// PRR5-ARHGAP8 (11727945_x_at) / Fold change /veh ARHGAP8 /// PRR5-ARHGAP8 (11727945_x_at) / RFU KRTAP5-7 /// NADSYN1 (11734609_at) / Fold change /veh KRTAP5-7 /// NADSYN1 (11734609_at) / RFU RASL12 (11751679_a_at) / Fold change /veh RASL12 (11751679_a_at) / RFU CDKN2B (11736163_a_at) / Fold change /veh CDKN2B (11736163_a_at) / RFU PRF1 (11729649_at) / Fold change /veh PRF1 (11729649_at) / RFU, ZNF638 /// ZNF638-IT1 / Fold change vs veh, ZNF638 /// ZNF638-IT1 / RFU, PANK3 / Fold change vs veh, PANK3 / RFU, SH3YL1 / Fold change vs veh, SH3YL1 / RFU, ZEB2 / Fold change vs veh, ZEB2 / RFU, NRIP1 / Fold change vs veh, NRIP1 / RFU, PTTG1IP / Fold change vs veh, PTTG1IP / RFU, CAPN2 / Fold change vs veh, CAPN2 / RFU, MED14 / Fold change vs veh, MED14 / RFU, SNORA58 / Fold change vs veh, SNORA58 / RFU, C1orf63 / Fold change vs veh, C1orf63 / RFU, LRRFIP1 / Fold change vs veh, LRRFIP1 / RFU, NDUFAF7 / Fold change vs veh, NDUFAF7 / RFU, SLC12A2 / Fold change vs veh, SLC12A2 / RFU, IBTK / Fold change vs veh, IBTK / RFU, ESF1 / Fold change vs veh, ESF1 / Fold change vs veh, TMEM50B / RFU, TAOK1 / Fold change vs veh, TAOK1 / RFU, ACBD3 / Fold change vs veh, ACBD3 / RFU, TMA16 / Fold change vs veh, TMA16 / RFU, RWDD3 / Fold change vs veh, RWDD3 / RFU, BCAT1 / Fold change vs veh, BCAT1 / RFU, EDEM3 / Fold change vs veh, EDEM3 / RFU, TMEM33 / Fold change vs veh, TMEM33 / RFU, WDR75 / Fold change vs veh, WDR75 / RFU, AHCTF1 / Fold change vs veh, AHCTF1 / RFU, TFRC / Fold change vs veh, TFRC / RFU, ZDHHC17 / Fold change vs veh, ZDHHC17 / RFU, NOM1 / Fold change vs veh, NOM1 / RFU, ARL8B / Fold change vs veh, ARL8B / RFU, ZBTB11 / Fold change vs veh, ZBTB11 / RFU, TAMM41 / Fold change vs veh, TAMM41 / RFU, KIAA1704 /// LOC100996395 / Fold change vs veh, KIAA1704 /// LOC100996395 / RFU, ING1 / Fold change vs veh, ING1 / RFU, TRMT61B / Fold change vs veh, TRMT61B / RFU, FUBP3 / Fold change vs veh, FUBP3 / RFU, TP53 / Fold change vs veh, TP53 / RFU, TNKS2 / Fold change vs veh, TNKS2 / RFU, ZFP14 / Fold change vs veh, ZFP14 / RFU, ACTR2 / Fold change vs veh, ACTR2 / RFU, PPP3R1 / Fold change vs veh, PPP3R1 / RFU, PIK3R1 / Fold change vs veh, PIK3R1 / RFU, HNRNPA1 / Fold change vs veh, HNRNPA1 / RFU, RNF170 / Fold change vs veh, RNF170 / RFU, ZNF28 / Fold change vs veh, ZNF28 / RFU, RNGTT / Fold change vs veh, RNGTT / RFU, OGT / Fold change vs veh, OGT / RFU, BRD1 / Fold change vs veh, BRD1 / RFU, MARS / Fold change vs veh, MARS / RFU, ZNF655 / Fold change vs veh, ZNF655 / RFU, FAHD1 / Fold change vs veh, FAHD1 / RFU, BDP1 / Fold change vs veh, BDP1 / RFU, LRRCC1 / Fold change vs veh, LRRCC1 / RFU, ARID1A / Fold change vs veh, ARID1A / RFU, ZNF146 / Fold change vs veh, ZNF146 / RFU, ZNF330 / Fold change vs veh, ZNF330 / RFU, GPN3 / Fold change vs veh, GPN3 / RFU, C9orf123 / Fold change vs veh, C9orf123 / RFU, N4BP2L2 / Fold change vs veh, N4BP2L2 / RFU, ARFIP1 / Fold change vs veh, ARFIP1 / RFU, FAM179B / Fold change vs veh, FAM179B / RFU, BCL10 / Fold change vs veh, BCL10 / RFU, UHRF1BP1L / Fold change vs veh, UHRF1BP1L / RFU, BET1 / Fold change vs veh, BET1 / RFU, CNOT2 / Fold change vs veh, CNOT2 / RFU, ZNF268 / Fold change vs veh, ZNF268 / Fold change vs veh, ZNF507 / RFU, DGCR2 / Fold change vs veh, DGCR2 / RFU, WDSUB1 / Fold change vs veh, WDSUB1 / Fold change vs veh, HSP90B1 /// MIR3652 / RFU, ADSS / Fold change vs veh, ADSS / RFU, GK / Fold change vs veh, GK / RFU, ZNF148 / Fold change vs veh, ZNF148 / RFU, TAF9 / Fold change vs veh, TAF9 / RFU, SLC1A5 / Fold change vs veh, SLC1A5 / RFU, SLMO2 / Fold change vs veh, SLMO2 / RFU, ABCC4 / Fold change vs veh, ABCC4 / RFU, LOC101060439 /// RAP1B / Fold change vs veh, LOC101060439 /// RAP1B / RFU, RFX7 / Fold change vs veh, RFX7 / RFU, GTPBP10 / Fold change vs veh, GTPBP10 / RFU, CNEP1R1 / Fold change vs veh, CNEP1R1 / RFU, BIVM-ERCC5 /// ERCC5 / Fold change vs veh, BIVM-ERCC5 /// ERCC5 / RFU, ILF3 / Fold change vs veh, ILF3 / RFU 11762660_at / Fold change /veh 11762660_at / RFU VCAN (11757783_s_at) / Fold change /veh VCAN (11757783_s_at) / RFU DDX43 (11728927_at) / Fold change /veh DDX43 (11728927_at) / RFU KRT8 (11758188_x_at) / Fold change /veh KRT8 (11758188_x_at) / RFU NKD1 (11759106_at) / Fold change /veh NKD1 (11759106_at) / RFU SRD5A1 (11742802_a_at) / Fold change /veh SRD5A1 (11742802_a_at) / RFU TPSAB1 /// TPSB2 (11721975_s_at) / Fold change /veh TPSAB1 /// TPSB2 (11721975_s_at) / RFU GSTM3 (11746129_a_at) / Fold change /veh GSTM3 (11746129_a_at) / RFU IL23R (11737362_x_at) / Fold change /veh IL23R (11737362_x_at) / RFU TMEM51 (11727254_a_at) / Fold change /veh TMEM51 (11727254_a_at) / RFU PIWIL2 (11732686_x_at) / Fold change /veh PIWIL2 (11732686_x_at) / RFU ORM1 (11744905_x_at) / Fold change /veh ORM1 (11744905_x_at) / RFU CCDC152 (11743942_at) / Fold change /veh CCDC152 (11743942_at) / RFU ECM1 (11717891_a_at) / Fold change /veh ECM1 (11717891_a_at) / RFU IL23R (11748794_a_at) / Fold change /veh IL23R (11748794_a_at) / RFU TNFAIP8L3 (11732012_x_at) / Fold change /veh TNFAIP8L3 (11732012_x_at) / RFU MBOAT4 (11741988_at) / Fold change /veh MBOAT4 (11741988_at) / RFU 11764193_at / Fold change /veh 11764193_at / RFU TMEM53 (11763286_at) / Fold change /veh TMEM53 (11763286_at) / RFU MAGEB2 (11727129_at) / Fold change /veh MAGEB2 (11727129_at) / RFU TMEM200A (11744735_a_at) / Fold change /veh TMEM200A (11744735_a_at) / RFU CCDC152 (11751479_a_at) / Fold change /veh CCDC152 (11751479_a_at) / RFU FAM211A (11726209_a_at) / Fold change /veh FAM211A (11726209_a_at) / RFU RGS16 (11746705_a_at) / Fold change /veh RGS16 (11746705_a_at) / RFU VCAN (11755009_s_at) / Fold change /veh VCAN (11755009_s_at) / RFU RHOB (11743442_s_at) / Fold change /veh RHOB (11743442_s_at) / RFU RGS16 (11720943_a_at) / Fold change /veh RGS16 (11720943_a_at) / RFU RGS16 (11720944_at) / Fold change /veh RGS16 (11720944_at) / RFU, VPS4B / Fold change vs veh, VPS4B / RFU, CREB1 / Fold change vs veh, CREB1 / RFU, DNAJC13 / Fold change vs veh, DNAJC13 / RFU, GNAQ / Fold change vs veh, GNAQ / RFU, CDK5R1 / Fold change vs veh, CDK5R1 / RFU, ZRANB3 / Fold change vs veh, ZRANB3 / RFU, CUL4A / Fold change vs veh, CUL4A / RFU, CCNY / Fold change vs veh, CCNY / RFU, UFL1 / Fold change vs veh, UFL1 / RFU, COG3 / Fold change vs veh, COG3 / RFU, DIAPH2 / Fold change vs veh, DIAPH2 / RFU, SKA2 / Fold change vs veh, SKA2 / RFU, AFF3 / Fold change vs veh, AFF3 / RFU, LMF1 / Fold change vs veh, LMF1 / RFU, IPO11 / Fold change vs veh, IPO11 / RFU, DFFB / Fold change vs veh, DFFB / RFU, FOXP1 / Fold change vs veh, FOXP1 / RFU, CARD8 / Fold change vs veh, CARD8 / RFU, STRN3 / Fold change vs veh, STRN3 / RFU, ADK / Fold change vs veh, ADK / RFU, RASSF2 / Fold change vs veh, RASSF2 / RFU, WIPF1 / Fold change vs veh, WIPF1 / RFU, LARP1B / Fold change vs veh, LARP1B / RFU, RASA1 / Fold change vs veh, RASA1 / RFU, RB1 / Fold change vs veh, RB1 / RFU, PPFIA1 / Fold change vs veh, PPFIA1 / RFU, MAT2A / Fold change vs veh, MAT2A / RFU, CCT5 / Fold change vs veh, CCT5 / RFU, WDR92 / Fold change vs veh, WDR92 / RFU, CUX1 / Fold change vs veh, CUX1 / RFU, TTC7A / Fold change vs veh, TTC7A / RFU, TMEM135 / Fold change vs veh, TMEM135 / RFU, DEPTOR / Fold change vs veh, DEPTOR / RFU, CPM / Fold change vs veh, CPM / RFU, DNAJB6 / Fold change vs veh, DNAJB6 / RFU, CACNA2D3 / Fold change vs veh, CACNA2D3 / RFU, DTX4 / Fold change vs veh, DTX4 / RFU, TFCP2 / Fold change vs veh, TFCP2 / RFU, GMCL1 /// GMCL1P1 / Fold change vs veh, GMCL1 /// GMCL1P1 / RFU, AEBP2 / Fold change vs veh, AEBP2 / RFU, SNHG1 /// SNORD22 /// SNORD25 /// SNORD26 /// SNORD27 /// SNORD28 /// SNORD29 /// SNORD31 / Fold change vs veh, SNHG1 /// SNORD22 /// SNORD25 /// SNORD26 /// SNORD27 /// SNORD28 /// SNORD29 /// SNORD31 / Fold change (Aza/veh), C12orf56 (ProbeSet 11735607_a_at) / Fold change (ACY-1035/veh), C12orf56 (ProbeSet 11735607_a_at) / Fold change (Aza/veh), FGFR1OP (ProbeSet 11751329_s_at) / Fold change (ACY-1035/veh), FGFR1OP (ProbeSet 11751329_s_at) / Fold change (Aza/veh), VPS36 (ProbeSet 11739960_a_at) / Fold change (ACY-1035/veh), VPS36 (ProbeSet 11739960_a_at) / RFU SYPL1 (11715823_x_at) / Fold change /veh SYPL1 (11715823_x_at) / RFU IGFBP7 (11715501_s_at) / Fold change /veh IGFBP7 (11715501_s_at) / RFU REEP3 (11722064_at) / Fold change /veh REEP3 (11722064_at) / RFU IGLL1 (11728026_x_at) / Fold change /veh IGLL1 (11728026_x_at): dose or concentration left out as unconfirmed",
  "settings": "MV-4-11 cells, 48 hours",
  "data": [
    {"smiles": "Nc1ncn([C@@H]2O[C@H](CO)[C@@H](O)[C@H]2O)c(=O)n1", "note": "[azacitidine]", "values": [
      {"measurement": "RFU NKD1 (11759106_at)", "result": 23.64, "unit": "RFU"}
    ]}
  ]
}
